Reference: patent US20230048576A1, “COMPOUNDS FOR THE TREATMENT OF NEUROPATHIC PAIN” (City of Hope, priority 2019, published 2023)
Several values for one entry are separate records, joined by “and”; a condition that tells them apart may be missing. Equal entries are not always repeated. Entries after “also recorded” stand apart in the source; their conditions may differ. Marks after values point to notes of the source that are not given here.

Key:
[1] = Formulation stability in 20% HPβCD in pH 8.0 buffer (HPLC area %); type: physicochemical
[2] = Solubility of purified LR-90 in different vehicles; type: physicochemical; settings: 20% HPβCD in pH 8.0 buffer (w/v); 5 or 10 mg/ml
[3] = system: Taxol-induced neuropathic pain; experiment: Von Frey test (mechanical allodynia) in Taxol induced model of neuropathic pain; type: in vivo, rat
Procedure: Neuropathic pain was induced by intraperitoneal administration of Taxol at a dose level of 6 mg/kg on study days 0-6 and 12 mg/kg on study days 7-12. Following injection of Taxol animals experienced pain as was assessed using the von Frey test. The development of neuropathic pain was confirmed by measuring mechanical allodynia (Von Frey test) on study day 13 (for inclusion) and on study day 14 (1 hour and 2 hour post dosing) and 24 hour post first dosing.
All data are presented as means±SEM. Each treatment group was compared to the Vehicle group using Two way ANOVA (for VF) followed by Tukey post-test (GraphPad). Vehicle group is compared to naïve group using T-test. A p value<0.05 is considered to represent a significant difference.
The response to tactile allodynia was evaluated using the Von Frey apparatus (Touch Test®). The rat was placed in an enclosure and positioned on a metal mesh surface, but allowed to move freely. A set of dull monofilaments provide an increasing force was applied on the animal plantar surface of the paw. The lowest force requires for animal paw withdrawal was recorded. Low force values recorded in this test indicate a painful state.

[4] = 5 mg/ml LR-90 in 20% HPβCD in pH 8.0 buffer
[5] = 10 mg/ml LR-90 in 20% HPβCD in pH 8.0 buffer

For `CC(C)(Oc1ccc(NC(=O)Nc2ccc(Cc3ccc(NC(=O)Nc4ccc(OC(C)(C)C(=O)O)cc4)c(Cl)c3)cc2Cl)cc1)C(=O)O` [LR-90, methylene bis[4,4′-(2-chlorophenylureidophenoxyisobutyric acid)]], the “Final Purity (24 hr) (HPLC area)” value [1, 4] was 99.20%, the “Initial Purity (HPLC area)” value [1, 4] was 99.21% and the “Final Purity (24 hr) (HPLC area)” value [1, 5] was 99.14%. For the same compound, the “Initial Purity (HPLC area)” value [1, 5] was 99.20%, the “degradation of the compound” value ([1]; 20% HPβCD solution, at least for 24 hours) was “no degradation” and the “dissolution to a solution of the drug target concentration” value [2] was “could be dissolved”. For the same compound, the “effect on the sensitivity of the treated animals to mechanical stimulation” value ([3]; 25 mg/kg) was “No significant effect”, the “mean Von Frey force required for withdrawal” value (shortened to “mean Von Frey force required”) ([3]; 25 mg/kg PO, Group 6, Baseline) was 60.00 g and the “mean Von Frey force required” value ([3]; 25 mg/kg PO, Group 6, Day 13 pre dosing) was 9.81 g. The “mean Von Frey force required” value ([3]; 25 mg/kg PO, Group 6, Day 14 1 hour post dosing) was 21.88 g, the “mean Von Frey force required” value ([3]; 25 mg/kg PO, Group 6, Day 14 2 hours post dosing) was 17.31 g and the “mean Von Frey force required” value ([3]; 25 mg/kg PO, Group 6, Day 15 24 hours post dosing) was 14.13 g. The “effect on the sensitivity of the treated animals to mechanical stimulation” value ([3]; 50 mg/kg) was “No significant effect”, the “mean Von Frey force required” value ([3]; 50 mg/kg PO, Group 5, Baseline) was 60.00 g and the “mean Von Frey force required” value ([3]; 50 mg/kg PO, Group 5, Day 13 pre dosing) was 9.81 g. For the same compound, the “mean Von Frey force required” value ([3]; 50 mg/kg PO, Group 5, Day 14 1 hour post dosing) was 17.38 g, the “mean Von Frey force required” value ([3]; 50 mg/kg PO, Group 5, Day 14 2 hours post dosing) was 22.13 g and the “mean Von Frey force required” value ([3]; 50 mg/kg PO, Group 5, Day 15 24 hours post dosing) was 16.75 g. For the same compound, the “mean Von Frey force required” value ([3]; 100 mg/kg PO, Group 4, Baseline) was 57.88 g, the “mean Von Frey force required” value ([3]; 100 mg/kg PO, Group 4, Day 13 pre dosing) was 10.06 g and the “mean Von Frey force required” value ([3]; 100 mg/kg PO, Group 4, Day 14 1 hour post dosing) was 34.69**** g. For the same compound, the “mean Von Frey force required” value ([3]; 100 mg/kg PO, Group 4, Day 14 2 hours post dosing) was 32.56±7.56 g and 32.56*** g, the “mean Von Frey force required” value ([3]; 100 mg/kg PO, Group 4, Day 15 24 hours post dosing) was 26.25 g and the “effect on neuropathic pain compared to the vehicle group (Von Frey test)” value ([3]; 100 mg/kg, Group 4, 1 hour and 2 hour post dosing on study day 14) was “statistically significantly reduced the neuropathic pain; also recorded: significantly effective in reducing neuropathic pain”.
